# Test results: ChEMBL document CHEMBL1127438, “Substituted (S)-phenylpiperidines and rigid congeners as preferential dopamine autoreceptor antagonists: synthesis and structure-activity relationships” (J Med Chem, 1994)
# pKi: −log10 of the molar value. Values joined by “and” are separate entries in the source; they are usually repeats but may differ in a detail not shown here. Identical values can stand only once.
# Legend:
# Rattus norvegicus [1] = test: Compound is evaluated biochemically in nonhabituated rats for (0.64 micro mol/kg) subcuteneous dose in rat striatum (DOPAacc); assay type: functional
# Rattus norvegicus [2] = test: Compound is evaluated for locomotor activity in nonpretreated habituated rats in 25 umol/kg of subcuteneous dose; assay type: functional
# Rattus norvegicus [3] = test: Compound is evaluated for locomotor activity in nonhabituated rats at 3.2 umol/kg of subcuteneous dose; assay type: functional
# Rattus norvegicus [4] = test: Compound is evaluated for locomotor activity in reserpine-pretreated habituated rats at 3.2 umol/kg) of subcuteneous dose; assay type: functional
# Rattus norvegicus [5] = test: Evaluated for biochemical levels of DOPAC in nonpretreated habituated rats for subcuteneous dose of 100 micro mol/kg in rat striatum; assay type: functional
# Rattus norvegicus [6] = test: Compound is evaluated for DOPA accumulation in reserpine-pretreated habituated rats fat 3.2 micro mol/kg of subcuteneous dose in rat striatum; assay type: functional
# Rattus norvegicus [7] = test: Effect (60 min after administration of 200 (1.6 micro mol/kg) subcuteneous dose on DA release in brain dialysis model of rat; assay type: functional
# Rattus norvegicus [8] = test: Compound is evaluated for DOPA accumulation in reserpine-pretreated habituated rats at 100 umol/kg of subcuteneous dose in rat striatum; assay type: functional
# Rattus norvegicus [9] = test: Evaluated for locomotor activity in nonpretreated habituated rats at 100 umol/kg of subcuteneous dose; assay type: functional; set-up: unit not given here
# Dopamine receptor = test: Tested for in vitro binding affinity against cloned mammalian dopamine autoreceptor (DA) receptors expressed in CHO-K1 cells using [3H]U-86170 as radioligand; assay type: cell-based
# D(3) dopamine receptor [10] = molecular target: T1, D(3) dopamine receptor (Homo sapiens, UniProt P35462); test: Tested for in vitro binding affinity against cloned mammalian dopamine autoreceptor (DA) receptors expressed in CHO-K1 cells [3H]-spiperone as radioligand; assay type: cell-based
# T1 sequence (P35462 whole entry): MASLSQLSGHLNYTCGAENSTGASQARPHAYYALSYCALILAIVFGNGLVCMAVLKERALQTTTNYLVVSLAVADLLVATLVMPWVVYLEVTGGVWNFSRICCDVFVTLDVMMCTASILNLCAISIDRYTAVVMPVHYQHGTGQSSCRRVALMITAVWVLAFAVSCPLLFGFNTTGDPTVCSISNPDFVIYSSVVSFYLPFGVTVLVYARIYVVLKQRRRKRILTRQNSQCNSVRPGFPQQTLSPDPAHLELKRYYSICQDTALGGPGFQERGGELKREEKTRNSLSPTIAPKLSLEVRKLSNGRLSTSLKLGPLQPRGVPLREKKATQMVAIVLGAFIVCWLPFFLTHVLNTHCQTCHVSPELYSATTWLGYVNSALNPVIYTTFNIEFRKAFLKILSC
# D(2) dopamine receptor [11] = molecular target: T2, D(2) dopamine receptor (Homo sapiens, UniProt P14416); test: biochemical
# T2 sequence (P14416 whole entry): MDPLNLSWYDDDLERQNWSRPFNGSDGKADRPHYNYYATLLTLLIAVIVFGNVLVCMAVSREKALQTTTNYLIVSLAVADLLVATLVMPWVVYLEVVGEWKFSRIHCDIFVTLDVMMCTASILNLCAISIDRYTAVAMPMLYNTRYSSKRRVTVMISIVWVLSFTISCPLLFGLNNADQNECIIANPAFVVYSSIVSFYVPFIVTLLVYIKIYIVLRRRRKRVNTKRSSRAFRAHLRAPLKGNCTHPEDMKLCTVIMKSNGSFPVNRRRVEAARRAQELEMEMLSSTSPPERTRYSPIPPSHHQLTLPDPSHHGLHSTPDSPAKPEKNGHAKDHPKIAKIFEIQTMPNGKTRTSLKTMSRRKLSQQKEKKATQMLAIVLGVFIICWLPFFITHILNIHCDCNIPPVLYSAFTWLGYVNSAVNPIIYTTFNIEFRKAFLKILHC
# Description: Affinity against recombinant dopamine receptor (DA) D2 expressed in CHO-K1 cells, using [3H]-spiperone as radioligand
# Rattus norvegicus [12] = test: Compound is evaluated for locomotor activity in reserpine-pretreated habituated rats at 100 micro mol/kg of subcuteneous dose; assay type: functional
# D(2) dopamine receptor [13] = molecular target: T3, D(2) dopamine receptor (Rattus norvegicus, UniProt P61169); test: Tested for affinity against striatal dopamine autoreceptor (DA) D2 receptors using [3H]spiperone as radioligand in rats.
# T3 sequence (P61169 whole entry): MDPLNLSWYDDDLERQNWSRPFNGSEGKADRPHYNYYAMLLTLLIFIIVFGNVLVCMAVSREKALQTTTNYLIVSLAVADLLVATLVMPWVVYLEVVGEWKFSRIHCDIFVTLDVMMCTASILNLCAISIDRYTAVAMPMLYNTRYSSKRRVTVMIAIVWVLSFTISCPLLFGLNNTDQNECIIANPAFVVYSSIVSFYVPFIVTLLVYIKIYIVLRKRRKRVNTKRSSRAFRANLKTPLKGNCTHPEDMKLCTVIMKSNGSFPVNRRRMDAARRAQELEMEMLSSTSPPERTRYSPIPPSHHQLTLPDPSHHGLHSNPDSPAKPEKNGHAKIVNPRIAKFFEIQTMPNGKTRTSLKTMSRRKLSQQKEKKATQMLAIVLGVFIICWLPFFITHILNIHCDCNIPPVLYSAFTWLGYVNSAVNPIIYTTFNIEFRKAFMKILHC
# Rattus norvegicus [14] = test: Compound is evaluated for DOPA accumulation in reserpine-pretreated habituated rats at 100 micro mol/kg of subcuteneous dose in rat striatum; assay type: functional
# Rattus norvegicus [15] = test: Compound is evaluated for DOPA accumulation in nonpretreated habituated rats for subcuteneous dose of 100 micro mol/kg in rat striatum; assay type: functional
# Rattus norvegicus [16] = test: Effect (60 min after administration of 200 (micro mol/kg) subcuteneous dose on DA release in brain dialysis model of rat striatum; assay type: functional
# Rattus norvegicus [17] = species on record: Rattus norvegicus; test: Compound is tested for concomitant ability to antagonize the locomotor activity induced by Di-Pr-5,6-ADTN; assay type: functional
# Rattus norvegicus [18] = test: Compound is evaluated for biochemical accumulation of DOPAC in nonpretreated habituated rats for subcuteneous dose of 100 micro mol/kg in rat striatum; assay type: functional
# Rattus norvegicus [19] = test: Compound is evaluated for locomotor activity in reserpine-pretreated habituated rats at 100 umol/kg of subcuteneous dose; assay type: functional
# Rattus norvegicus [20] = test: Compound is evaluated for locomotor activity in nonpretreated habituated rats in 50 umol/kg of subcuteneous dose; assay type: functional
# Rattus norvegicus [21] = test: Compound is evaluated for DOPA accumulation in reserpine-pretreated habituated rats at 50 umol/kg of subcuteneous dose in rat striatum; assay type: functional
# Rattus norvegicus [22] = test: Evaluated for locomotor activity in nonpretreated habituated rats in 100 umol/kg of subcuteneous dose; assay type: functional; set-up: unit not given here
# D(3) dopamine receptor [23] = molecular target: T1, D(3) dopamine receptor; test: Tested for in vitro binding affinity against cloned mammalian dopamine D3 receptor, expressed in CHO-K1 cells, using [3H]spiperone as radioligand; assay type: cell-based
# Rattus norvegicus [24] = test: Compound is evaluated for DOPA accumulation (DOPAacc) level in nonhabituated rats after subcuteneous dose (100 uM/kg) in rat striatum; assay type: functional
# D(2) dopamine receptor [25] = molecular target: T2, D(2) dopamine receptor; test: biochemical; remark: listed apart in the source
# Description: In vitro binding affinity against cloned mammalian dopamine D2 autoreceptor, expressed in CHO-K1 cells, using [3H]U-86170 as radioligand
# Rattus norvegicus [26] = test: Compound is evaluated biochemically in nonhabituated rats for (100 umol/kg) subcuteneous dose, Value expressed as locomotor activity (LMA); assay type: functional
# D(2) dopamine receptor [27] = molecular target: T3, D(2) dopamine receptor
# Description: Affinity against striatal dopamine D2 receptors using [3H]spiperone as radioligand in rats.
# Rattus norvegicus [28] = test: Evaluated biochemically in reserpine-pretreated habituated rats for (100 umol/kg) subcuteneous dose, Value expressed as locomotor activity (LMA); assay type: functional
# Rattus norvegicus [29] = test: Evaluated biochemically in reserpine-pretreated habituated rats for (100 umol/kg) subcuteneous dose in rat striatum (DOPAacc), Value expressed as counts/30 min; assay type: functional
# D(3) dopamine receptor [30] = molecular target: D(3) dopamine receptor (Rattus norvegicus, UniProt P19020); test: Tested for in vitro binding affinity against cloned mammalian dopamine autoreceptor, expressed in CHO-K1 cells, using [3H]spiperone as radioligand; assay type: cell-based
# Sequence of D(3) dopamine receptor (Rattus norvegicus, UniProt P19020) (P19020 whole entry): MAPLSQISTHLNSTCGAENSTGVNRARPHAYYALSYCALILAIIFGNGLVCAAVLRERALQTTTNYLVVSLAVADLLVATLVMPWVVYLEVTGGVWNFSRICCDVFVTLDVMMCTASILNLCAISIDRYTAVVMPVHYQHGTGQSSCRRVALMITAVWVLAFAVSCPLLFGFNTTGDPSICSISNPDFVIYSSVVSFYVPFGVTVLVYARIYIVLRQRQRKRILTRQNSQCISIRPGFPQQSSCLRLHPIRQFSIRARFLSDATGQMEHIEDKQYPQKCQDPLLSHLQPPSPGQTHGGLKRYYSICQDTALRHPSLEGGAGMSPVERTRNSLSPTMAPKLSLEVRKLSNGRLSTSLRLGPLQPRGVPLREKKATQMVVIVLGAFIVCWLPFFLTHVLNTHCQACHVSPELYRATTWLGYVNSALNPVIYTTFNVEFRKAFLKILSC
# Rattus norvegicus [31] = test: Evaluated for DOPAC level in nonpretreated habituated rats after subcuteneous dose of 100 micro mol/kg in rat striatum; assay type: functional
# Rattus norvegicus [32] = test: Evaluated biochemically in nonpretreated habituated rats for (100 uM/kg) subcuteneous dose, Value expressed as locomotor activity (LMA); assay type: functional
# Rattus norvegicus [33] = test: Evaluated for DOPA accumulation (DOPAacc) level in nonhabituated rats after subcuteneous dose (100 uM/kg) in rat striatum; assay type: functional
# Rattus norvegicus [34] = test: Compound is evaluated for locomotor activity in nonhabituated rats at 1.3 micro mol/kg of subcuteneous dose; assay type: functional
# Rattus norvegicus [35] = test: Effect (60 min after administration of 200 (5.3 umol/kg) subcuteneous dose on DA release in brain dialysis model of rat; assay type: functional
# Rattus norvegicus [36] = test: Compound is evaluated for locomotor activity in nonpretreated habituated rats at 1.6 micro mol/kg of subcuteneous dose; assay type: functional
# Rattus norvegicus [37] = test: Compound is evaluated DOPA accumulation in nonhabituated rats for (1.3 micro mol/kg) subcuteneous dose in rat striatum; assay type: functional
# Rattus norvegicus [38] = test: Compound is tested for its ability to displace Di-Pr-5,6-ADTN at […] subcutaneous dose from rat striatal binding sites in vivo; assay type: functional
# Rattus norvegicus [39] = test: Evaluated biochemically in nonhabituated rats for (100 umol/kg) subcuteneous dose, Value expressed as locomotor activity (LMA); assay type: functional
# Rattus norvegicus [40] = species on record: Rattus norvegicus; test: Compound was tested in vio for concomitant ability to antagonize the locomotor activity of rat induced by Di-Pr-5,6-ADTN; assay type: functional
# Rattus norvegicus [41] = test: Compound was tested in vivo for its ability to displace DA receptor agonist (Di-Pr-5,6-ADTN) from rat striatal binding sites at 0.25 uM/Kg sc. dose; assay type: functional
smiles,measurement,setting,value
CN1CCc2cccc3c2[C@H]1Cc1ccc(O)c(O)c1-3 [APOMORPHINE],Activity,Rattus norvegicus [1],53%
same,LMA,Rattus norvegicus [2],491
same,LMA,Rattus norvegicus [3],277
same,LMA,Rattus norvegicus [4],366
same,Activity,Rattus norvegicus [5],65%
same,Activity,Rattus norvegicus [6],20%
same,Activity,Rattus norvegicus [7],37%
CCCN1CCC[C@@H](c2cccc(SC)c2)C1,Activity,Rattus norvegicus [8],92%
same,LMA,Rattus norvegicus [9],313
same,Ki,Dopamine receptor,49 nM
same,pKi,D(3) dopamine receptor [10],6.86
same,Activity,Rattus norvegicus [5],118%
same,pKi,D(2) dopamine receptor [11],< 6.66
same,LMA,Rattus norvegicus [12],5
same,pKi,D(2) dopamine receptor [13],6.07
CCCc1cccc([C@@H]2CCCN(CCC)C2)c1,Activity,Rattus norvegicus [14],62%
same,LMA,Rattus norvegicus [14],734
same,Ki,Dopamine receptor,57 nM
same,pKi,D(3) dopamine receptor [10],7.07
same,Activity,Rattus norvegicus [5],181%
same,pKi,D(2) dopamine receptor [11],< 6.66
same,pKi,D(2) dopamine receptor [13],6.41
same,Activity,Rattus norvegicus [15],190%
CCCN1CCC[C@@H](c2cccc(OS(=O)(=O)C(F)(F)F)c2)C1,Activity,Rattus norvegicus [16],223%
same,LMA,Rattus norvegicus [17],78%
same,LMA,Rattus norvegicus [9],290
same,Ki,Dopamine receptor,40 nM
same,Activity,Rattus norvegicus [18],264% and 89%
same,LMA,Rattus norvegicus [19],26
CCCN1CCCC2c3cccc(OS(=O)(=O)C(F)(F)F)c3CCC21 (stereo in doubt; 46),LMA,Rattus norvegicus [20],211
same,Activity,Rattus norvegicus [14],62%
same,Ki,Dopamine receptor,21 nM
same,pKi,D(3) dopamine receptor [10],7.66
same,Activity,Rattus norvegicus [5],263%
same,pKi,D(2) dopamine receptor [11],< 6.66
same,Activity,Rattus norvegicus [21],85%
same,pKi,D(2) dopamine receptor [13],7.19
same,LMA,Rattus norvegicus [22],200
CCCN1CCC[C@@H](c2cccc(OCC(F)(F)F)c2)C1,pKi,D(3) dopamine receptor [23],5.85
same,Control,Rattus norvegicus [24],96%
same,pKi,D(2) dopamine receptor [25],6.09
same,pKi,D(2) dopamine receptor [11],< 6.66
same,Control,Rattus norvegicus [26],90%
same,pKi,D(2) dopamine receptor [27],5.78
CCCN1CCC[C@@H](c2cccc(OC)c2)C1,Control,Rattus norvegicus [28],23%
same,Activity,Rattus norvegicus [29],66%
same,pKi,D(3) dopamine receptor [30],5.88
same,pKi,D(2) dopamine receptor [25],6.22
same,Activity,Rattus norvegicus [31],149%
same,pKi,D(2) dopamine receptor [11],< 6.66
same,Control,Rattus norvegicus [32],463%
same,Control,Rattus norvegicus [26],160%
same,Activity,Rattus norvegicus [33],131%
same,pKi,D(2) dopamine receptor [27],5.46
O=C(CCCN1CCC(O)(c2ccc(Cl)cc2)CC1)c1ccc(F)cc1 [HALOPERIDOL],LMA,Rattus norvegicus [34],2
same,Activity,Rattus norvegicus [35],211%
same,LMA,Rattus norvegicus [36],61
same,LMA,Rattus norvegicus [17],7%
same,Activity,Rattus norvegicus [5],404%
same,Activity,Rattus norvegicus [37],356%
same,Activity,Rattus norvegicus [38],82%
"CCN1CCCC1CNC(=O)c1c(OC)ccc(Br)c1OC (single isomer, unassigned) [REMOXIPRIDE]",Control,Rattus norvegicus [28],5%
same,Activity,Rattus norvegicus [29],104%
same,Activity,Rattus norvegicus [31],313%
same,Locomotor activity (% of control),Rattus norvegicus [39],60%
same,LMA,Rattus norvegicus [40],91%
same,Activity,Rattus norvegicus [33],411%
same,Control,Rattus norvegicus [41],48%
